# Test results from publication PMC8147781, “Discovery of Pyrrolidine-2,3-diones as Novel Inhibitors of P. aeruginosa PBP3” (Antibiotics, 2021).
# “And” between values parts separate entries of the source, which are not always exact repeats. Equal values may be shown once. Read-outs that look alike come from different tables or passages of the source.
# How the values were obtained:
# B. subtilis 168 = test: MIC broth microdilution, B. subtilis; format: cell-based; settings: Bacillus subtilis, 168; Table S3
# Description: (§1) MIC determination was performed via standard broth microdilution according to the Clinical & Laboratory Standards institute guidelines. Overnight colonies grown on BD-Columbia agar with 5% Sheep Blood (Becton Dickinson, Franklin Lakes, NJ, USA), were diluted in Mueller Hinton Broth 2 cation adjusted (MH+) medium (Thermo Fisher Scientific) to a concentration of 5 × 10^5 CFU/mL. Serial dilutions (1:2) of test compounds were incubated at 37 °C with 5 × 10^4 bacteria in a final volume of 100 μL. Sterile and growth controls in the presence of 1% DMSO and PMBN if the case, and the positive controls, aztreonam (AZT) and tigecycline (TIG) were included in the experiments (Table S4). The MICs were determined visually after 18 h at 37 °C and confirmed by the addition of 10% PrestoBlue (ThermoFisher Scientific) reagent according to the manufacture’s protocol. The fluorescence signal of PrestoBlue reagent was measured at Ex/Em: 550/595 nm after 30 min incubation at 37 °C using at a ClarioStar microplate reader (BMG Labtech). PrestoBlue reduction occurs in the presence of living cells and consequently turns red in colour and is highly fluorescent.
# [1] = test system: H9, cutaneous T lymphocyte cell line; test: Cytotoxicity assay (PrestoBlue), H9; settings: CC50, 72 h
# Description: We finally tested the cytotoxicity of the compounds against four eukaryotic cell lines (Table 2 and Table S5), NRK-52E, an epithelial kidney cell line of Rattus norvegicus; Hep G2, an human epithelial liver cell line; and two suspension cell lines: CCRF-CEM, a T lymphoblast; and H9, a cutaneous T lymphocyte cell line.
# Cell lines stored at −120 °C were thawed to 37 °C and resuspended in 10 mL of medium pre-warmed to 37 °C. Cells were pelleted at 300× g for 10 min, and then resuspended in fresh medium, seeded in a T-75 culture flask, and placed in a CO2 incubator (37 °C with 5% CO2 tension). Once the cells reached approximately 70–80% confluency, they were then passaged regularly. The adherent cell lines NRK52E, HepG2 and Huh 7 were washed once with 10 mL DPBS and detached with Trypsin-EDTA for 5 to 7 min and resuspended in 15 mL of the appropriate medium. The suspension cell line CCRF-CEM were diluted and resuspended in fresh RPMI 1640 PAN medium. To calculate the cell density, the cell resuspensions were diluted 1:6 with DPBS. Equal volumes of cell suspension and Trypan Blue were mixed and gently loaded into a haemocytometer (INCYTO, 31056 Republic of Korea). In each experiment, cell concentrations were adjusted to reach a concentration of 2.5 × 10^3 cell/well for NRK52E, 5 × 10^3 cell/well for HepG2, 6.2 × 10^4 cell/well for CCRF-CEM and 3 × 10^3 for H9. The cells were incubated with decreasing concentration of compounds (1 µL in 96% DMSO) for 72 h at 37 °C with 5% CO2 tension. Cycloheximide, a cytotoxic compound that interferes with the translocation step in eukaryotic protein synthesis was used as a control for the experiments. The assay was carried out in flat-bottom, transparent 96-well plates. Cell viability was determined using the PrestoBlue reagent (Thermo Fisher Scientific, Waltham, MA, USA) according to the manufacture’s protocol. First, 10× PrestoBlue was added to each well to obtain a 1× solution, and incubated at 37 °C for 45 min. Then, fluorescence was measured at Ex/Em: 550/595 nm using a ClarioStar microplate reader (BMG Labtech). Cytotoxicity was determined as the percentage of the difference in absorbance of the untreated sample to the treated sample. CC50 was calculated using the values obtained in each concentration using the sigmoidal dose-response by Prism v.8. The media used in each cell line is detailed in Table S6.
# S. pneumoniae = test: MIC broth microdilution, S. pneumoniae; format: cell-based; settings: Streptococcus pneumoniae, read-out: MIC (µM) S. pneumoniae
# Description: as §1
# [2] = target: T1, PBP3 of P. aeruginosa (PaPBP3) (Pseudomonas aeruginosa, UniProt G3XD46); test: FP-Bocillin FL competition assay; format: binding; settings: 30 min preincubation before Bocillin FL, 37 °C; read-out: IC50 Determination with PaPBP3, FP-Bocillin FL Assay
# T1 construct: P. aeruginosa PBP3 (amino acids 40 to 563); His-tag; made in house; host or cells: E. coli BL21 (DE3) Rosetta, plasmid pET41_PBP-3
# Description: Bocillin FL is a fluorescent penicillin V derivate used as a competitor for PBP inhibitors.
# Fluorescence polarisation (FP) experiments were carried out as described before. To determine the binding of Bocillin FL to PBP, 200 nM of ^PaPBP3 was incubated for 30 min with 100 nM of Bocillin FL (Thermo Fisher Scientific, Waltham, MA, USA). The fluorescence polarisation signal of free Bocillin FL was monitored in a Pherastar microplate reader (BMG Labtech, Ortenberg, Germany) in the polarisation mode with Ex/Em: 485/520 nm excitation and emission filters. Millipolarisation (mP) units were calculated using the MARS data analysis software v30.40.R2 (BMG Labtech, Ortenberg, Germany). All the experiments were done in Sorensen buffer at 37 °C using flat-bottom, black 96-well plates. […] Bocillin FL was diluted in Sorensen buffer and added to the reaction and directly measured for 30 min at 37 °C. The FP was continuously measured in the presence and absence of compound and enzyme. […] The estimated IC50 values were established by sigmoidal nonlinear regression, using Prims v.8 software.
# [3] = test system: P. aeruginosa K2896 ΔmexBΔmexXYΔmexCD-oprJ; test: MIC broth microdilution, P. aeruginosa K2896 efflux mutant; format: cell-based, Pseudomonas aeruginosa; settings: ΔmexB; ΔmexX, ΔmexCD-oprJ, with 4 µg/mL PMBN
# Excerpt: (§2) The results presented above implied that seven pyrrolidine-2,3-dione derivatives inhibited the activity of ^PaPBP3 in vitro. Consequently, we were very interested in investigating the potential of these compounds to affect the growth of P. aeruginosa. Two P. aeruginosa bacterial strains (the wild-type PAO1 and the isogenic ΔmexB ΔmexX ΔmexCD-oprJ efflux pump mutant) were used to determine the MIC and the potential role of the main P. aeruginosa efflux systems in compound uptake. To increase the antibacterial sensitivity of the tested P. aeruginosa isolates to the potential inhibitors, we performed MIC experiments in the presence and absence of a sub-MIC concentration (4 µg/mL) of the outer membrane permeabilising polymyxin B nonapeptide (PMBN). […] Thus, we concluded that the physicochemical properties of the pyrrolidine-2,3-dione compounds were perhaps not yet favourable enough to cross the P. aeruginosa cell envelope without a permeabiliser because of their high hydrophobicity.
# (§3) The wild-type P.aeruginosa PAO1 and the isogenic P. aeruginosa K2896 ΔmexBΔmexXYΔmexCD-oprJ isolates were used to determine the MIC in the presence and absence of PMBN [48].
# as §1
# [4] = test system: P. aeruginosa PAO1 (wild-type strain); test: MIC broth microdilution, P. aeruginosa PAO1; format: cell-based, Pseudomonas aeruginosa; settings: wild-type strain, with 4 µg/mL PMBN
# Excerpt: as §2, §3, §1
# T1 sequence (G3XD46 40-563): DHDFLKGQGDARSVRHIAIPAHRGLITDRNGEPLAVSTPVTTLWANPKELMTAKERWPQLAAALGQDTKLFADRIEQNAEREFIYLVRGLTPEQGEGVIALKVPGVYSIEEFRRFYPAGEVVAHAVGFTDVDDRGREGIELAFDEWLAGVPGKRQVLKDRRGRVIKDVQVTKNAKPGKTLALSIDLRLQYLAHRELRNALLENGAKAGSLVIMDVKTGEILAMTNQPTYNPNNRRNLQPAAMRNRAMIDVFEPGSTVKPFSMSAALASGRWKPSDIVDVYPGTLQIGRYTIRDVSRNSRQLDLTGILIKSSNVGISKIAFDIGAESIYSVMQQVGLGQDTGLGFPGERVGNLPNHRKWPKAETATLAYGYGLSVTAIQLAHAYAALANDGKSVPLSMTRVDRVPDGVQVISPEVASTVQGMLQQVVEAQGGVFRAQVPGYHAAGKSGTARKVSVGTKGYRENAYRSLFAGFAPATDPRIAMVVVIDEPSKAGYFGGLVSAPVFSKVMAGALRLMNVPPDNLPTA
SMILES,MIC (B. subtilis 168) [µM],Cytotoxicity effect (µM) T-lymphocyte H9 [1] [µM],MIC (S. pneumoniae; Table S3) [µM],IC50 [2],MIC (µM) against P. aeruginosa K28926 [3] [µM],MIC (µM) against P. aeruginosa PAO1 [4] [µM],MIC (S. pneumoniae) [µM]
O=C(C1=C(O)C(=O)N(Cc2cccc(F)c2)C1c1ccc(Cl)cc1)c1ccc(Br)cc1 (centres unmarked) [Compound 1],> 100,> 100,25,7 ± 3 µM,12.5,–,–
"O=C1NC(c2ccc(Cl)cc2)C(C(=O)c2ccc(Br)cc2)=C1O (centres unmarked) [Compound 32, 4-(4-bromobenzoyl)-5-(4-chlorophenyl)-3-hydroxy-1,5-dihydropyrrol-2-one]",100,> 100,> 100,> 100 µM,>100,>100,–
CCN1C(=O)C(O)=C(C(=O)c2ccc(Br)cc2)C1c1ccc(Cl)cc1 (centres unmarked) [Compound 33],> 100,> 100,50,> 100 µM,>100,>100,–
"O=C(C1=C(O)C(=O)N(Cc2cc3ccccc3[nH]2)C1c1ccc(Cl)cc1)c1ccc(Br)cc1 (centres unmarked) [Compound 34, 4-(4-bromobenzoyl)-5-(4-chlorophenyl)-3-hydroxy-1-(1H-indol-2-ylmethyl)-5H-pyrrol-2-one]",25,> 100,–,4 ± 4 µM,–,–,12.5
O=C(C1=C(O)C(=O)N(Cc2cc3cc(Cl)ccc3[nH]2)C1c1ccc(Cl)cc1)c1ccc(Br)cc1 (centres unmarked) [Compound 35],6.25,96 ± 7,6.25,2 µM and 0.6 µM,–,–,–
O=C(C1=C(O)C(=O)N(Cc2cc3cnccc3[nH]2)C1c1ccc(Cl)cc1)c1ccc(Br)cc1 (centres unmarked) [Compound 36],> 100,48 ± 2,> 100,> 100 µM,100,>100,–
O=C(C1=C(O)C(=O)N(CCc2cc3ccccc3[nH]2)C1c1ccc(Cl)cc1)c1ccc(Br)cc1 (centres unmarked) [Compound 37],3.13,19 ± 6,50,17 ± 3 µM,–,–,–
O=C(C1=C(O)C(=O)N(Cc2nc3ccccc3[nH]2)C1c1ccc(Cl)cc1)c1ccc(Br)cc1 (centres unmarked) [Compound 38],> 100,> 100,25,117 ± 4 µM,>100,>100,–
O=C(C1=C(O)C(=O)N(CCc2c[nH]c3ccccc23)C1c1ccc(Cl)cc1)c1ccc(Br)cc1 (centres unmarked) [Compound 40],> 100,> 100,12.5,4 ± 2 µM,–,–,–
"O=C(C1=C(O)C(=O)N(Cc2ccco2)C1c1ccc(Cl)cc1)c1ccc(Br)cc1 (centres unmarked) [Compound 41, 4-(4-bromobenzoyl)-5-(4-chlorophenyl)-1-(furan-2-ylmethyl)-3-hydroxy-5H-pyrrol-2-one]",> 100,> 100,50,> 100 µM,25,–,–
O=C(C1=C(O)C(=O)N(Cc2cscn2)C1c1ccc(Cl)cc1)c1ccc(Br)cc1 (centres unmarked) [Compound 42],> 100,> 100,> 100,> 100 µM,>100,>100,–
"CCNC1=C(C(=O)c2ccc(Br)cc2)C(c2ccc(Cl)cc2)N(Cc2cccc(F)c2)C1=O (centres unmarked) [Compound 43, 4-(4-bromobenzoyl)-5-(4-chlorophenyl)-3-(ethylamino)-1-[(3-fluorophenyl)methyl]-5H-pyrrol-2-one]",> 100,> 100,> 100,> 100 µM,>100,>100,–
"O=C(C1=C(N2CCOCC2)C(=O)N(Cc2cccc(F)c2)C1c1ccc(Cl)cc1)c1ccc(Br)cc1 (centres unmarked) [Compound 44, 4-(4-bromobenzoyl)-5-(4-chlorophenyl)-1-[(3-fluorophenyl)methyl]-3-(morpholin-4-yl)-5H-pyrrol-2-one]",> 100,> 100,> 100,> 100 µM,>100,>100,–
CCNC1=C(C(=O)c2ccc(Br)cc2)C(c2ccc(Cl)cc2)N(Cc2c[nH]c3ccccc23)C1=O (centres unmarked) [Compound 45],> 100,32 ± 10,25,> 100 µM,>100,>100,–
